Experimental data from patent publication US10517842B2, “Methods of modulating miRNA levels and compositions for use in the same” (Los Angeles Biomedical Research Institute at Harbor-UCLA …, priority 2017, dated 2019).

Legend:
Format in all cases: cell-based, human
CCND1 = assay: Immunoblotting, protein expression in LSMC; conditions: Tranilast 200 μM, 48 h, Western blot, P<0.05
Protocol: (§1) Total protein isolated from LSMC treated with Tranilast (200 μM) at sub-confluence for 48 hrs and from tissues was subjected to immunoblotting as previously described (Chuang et al., “miR-29c induction contributes to downregulation of vascular extracellular matrix proteins by glucocorticoids,” American journal of physiology Cell physiology (2015) 309:C117-25). Specific antibodies generated against CCND1, COL3A1, TGF-β3 (Proteintech Group, Inc., Chicago, Ill.), CDK2, DNMT1 (Santa Cruz Biotechnology, Dallas, Tex.), COL1 (Fitzgerald Industries Intl., Acton, Mass.) and EZH2 (Cell Signaling Technology, Danvers, Mass.) were used to detect specific protein expression. The membranes were also stripped and probed with GAPDH antibody (Proteintech Group, Inc.) serving as loading control.

CDK2 = assay: Immunoblotting, protein expression in LSMC; conditions: Tranilast 200 μM, 48 h, Western blot, P<0.05
Protocol: as §1

COL1 = assay: Immunoblotting, protein expression in LSMC; conditions: Tranilast 200 μM, 48 h, Western blot, P<0.05
Protocol: as §1

COL3A1 = assay: Immunoblotting, protein expression in LSMC; conditions: Tranilast 200 μM, 48 h, Western blot, P<0.05
Protocol: as §1

DNMT1 = assay: Immunoblotting, protein expression in LSMC; conditions: Tranilast 200 μM, 48 h, Western blot, P<0.05
Protocol: as §1

EZH2 = assay: Immunoblotting, protein expression in LSMC; conditions: Tranilast 200 μM, 48 h, Western blot, P<0.05
Protocol: as §1

TGF-β3 = assay: Immunoblotting, protein expression in LSMC; conditions: Tranilast 200 μM, 48 h, Western blot, P<0.05
Protocol: as §1

miR-200c = assay: Quantitative RT-PCR (TaqMan miRNA assay), cellular and secreted miRNA in LSMC; conditions: Tranilast 200 μM, 48 hours, P<0.05
Protocol: (§2) Total RNA was extracted from LSMC using RNAzol (GeneCopoeia, Rockville, Md.) and their quantity and quality was determined (ND-1000 Spectrophotometer, NanoDrop Technologies, Wilmington, Del.) as previously described (Chuang & Khorram, “miR-200c Regulates IL8 Expression by Targeting IKBKB: A Potential Mediator of Inflammation in Leiomyoma Pathogenesis,” PloS one (2014) 9:e95370). For medium miRNA extraction, 5 pg of synthetic miR-1 from Caenorhabditis elegans (cel-miR-1) was added as a spike-in control for purification efficiency. Subsequently, 2 μg or 10 ng (for miRNA) was reverse transcribed using random primers for CCND1, CDK2, COL1A1, COL3A1, TGF-β3, DNMT1 and EZH2 or specific primers for miR-29c and miR-200c according to the manufacturer's guidelines (Applied Biosystems, Carlsbad, Calif.). Quantitative RT-PCR was carried out using SYBR gene expression master mix or TaqMan miRNA expression assays (Applied Biosystems). Reactions were incubated for 10 min at 95° C. followed by 40 cycles for 15 seconds at 95° C. and 1 min at 60° C. The level of mRNAs and expression of cellular and secreted miRNA was determined using the Invitrogen StepOne System with 18S, RNU6B and cel-miR-1 used for normalization respectively. All reactions were run in triplicate and relative expression was analyzed with the comparative cycle threshold method (2^−ΔΔCT) according to the manufacturer (Applied Biosystems). Values were expressed as fold change compared to the control group.

miR-29c = assay: as above; conditions: Tranilast 200 μM, 48 hours, P<0.05
Protocol: as §2

3′UTR of COL3A1 = assay: 3′UTR luciferase reporter assay in LSMC; conditions: Tranilast 200 μM vs DMSO set as 1, 48 hrs before and 48 hrs after transfection, LSMC; P<0.05
Protocol: LSMC were seeded at 3.5×10^4 cells/well in 6-well plates and at sub-confluence were treated with Tranilast (200 μM) or DMSO as control for 48 hrs. Tranilast and DMSO-treated cells were then transfected with luciferase reporter plasmids (1 μg/well) containing 3′ UTR sequences for COL3A1 or CDK2 (GeneCopoeia, Inc., Rockville, Md.) using PureFection transfection reagent (System Biosciences, Inc., Palo Alto, Calif.). After 48 hrs of transfection Firefly and Renilla luciferase activities were measured using the Dual-Luciferase Reporter Assay System (Promega). Firefly luciferase activity was normalized to Renilla luciferase activity. The level of induction was reported as mean±SEM of three experiments and compared with a ratio in cells treated with DMSO independently set as 1.
FIG. 10A: The relative luciferase activity in LSMC treated with Tranilast (200 μM) or DMSO as control for 48 hrs prior to transfection with Renilla and Firefly luciferase reporter plasmids carrying a 3′UTR fragment of COL3A1, CDK2 or IL8 and incubated with Tranilast (200 μM) or DMSO containing medium after transfection for another 48 hrs. The relative luciferase activity is presented as the ratio of Firefly:Renilla as compared to DMSO which was independently set as 1. The results are presented as mean±SEM of at least three sets of independent experiments using LSMC isolated from 3 patients. FIG. 10B: Protein expression of COL3A1 and CDK2 was determined after transfection of anti-miR scrambled oligonucleotides (aNC) or anti-miR-29c oligonucleotides (a29c) in LSMC for 72 hrs with DMSO or Tranilast (200 μM) treatment for the last 48 hrs. GAPDH was used as loading control. The result is one representative of at least three sets of independent experiments using LSMC isolated from 3 patients. FIG. 10C: The bar graph presented the relative band densities as mean±SEM of at least three independent experiments. Inhibition of protein expression by Tranilast treatment was calculated relative to changes in corresponding DMSO controls in cells transfected with aNC or anti-miR-29c.

COc1ccc(C=CC(=O)Nc2ccccc2C(=O)O)cc1OC [Tranilast, 2-[[3-(3,4-dimethoxyphenyl)-1-oxo-2-propenyl]amino]benzoic acid]
significantly inhibited: CCND1 expression, protein level (CCND1) | CDK2 expression, protein level (CDK2) | COL1 expression, protein level (COL1) | COL3A1 expression, protein level (COL3A1) | DNMT1 expression, protein level (DNMT1) | EZH2 expression, protein level (EZH2) | TGF-β3 expression, protein level (TGF-β3)
significantly increased: expression of secreted (medium) miR-200c (miR-200c; LSMC medium) | expression of cellular miR-200c (miR-200c; LSMC) | expression of secreted (medium) miR-29c (miR-29c; LSMC medium) | expression of cellular miR-29c (miR-29c; LSMC)
suppressed: 3′UTR activity of COL3A1 (relative luciferase activity, Firefly:Renilla) (3′UTR of COL3A1)
